Literature values in US20090238867A1, “Nanoparticulate Anidulafungin Compositions and Methods for Making the Same” (priority 2007, published 2009).
Like-named read-outs stand apart in the source and are kept apart here. Numbered stars: 1 amine (or outer) side, 2 acyl side, 3 side chain; on linkers, the order of the positions; unused ones are H or OH. Bridge positions count the residues as written; N and C are the ends. Square brackets hold non-standard residues; d marks the D form. Peptide text beside a SMILES is read from it. * marks the point of attachment. ξ: configuration not given here. pTerphenylCO(4''-OnC5H11) = CCCCCOc1ccc(-c2ccc(-c3ccc(C(=O)*)cc3)cc2)cc1; Orn(4R-OH,5R-OH) = O=C([C@H](C[C@@H](O)[C@@H](O)N[*:3])N[*:1])[*:2]; hTyr(3S-OH,4S-OH) = N[C@H](C(=O)O)[C@H](O)[C@@H](O)c1ccc(O)cc1; Pro(3S-OH,4S-Me) = C[C@H]1CN[C@H](C(=O)O)[C@H]1O; Hyp = O=C(O)[C@@H]1C[C@@H](O)CN1; ξThr(3R) = C[C@@H](O)C(N)C(=O)O

What was measured:
glucan synthase = settings: enzyme present in fungal, not mammalian cells
Candida albicans [1] = system: Candida albicans
Candida albicans [2] = settings: parenteral; immunocompetent and immunosuppressed mice, disseminated infection
Candida albicans [3] = settings: parenteral; immunocompetent and immunosuppressed rabbits, disseminated infection
[4] = system: fluconazole-resistant C. albicans; settings: immunosuppressed rabbits
[5] = IV
[6] = system: cytochrome P450 (CYP450) isoenzymes

CCCCCOc1ccc(-c2ccc(-c3ccc(C(=O)N[C@H]4C[C@@H](O)[C@@H](O)NC(=O)[C@@H]5[C@@H](O)[C@@H](C)CN5C(=O)[C@H]([C@@H](C)O)NC(=O)[C@H]([C@H](O)[C@@H](O)c5ccc(O)cc5)NC(=O)[C@@H]5C[C@@H](O)CN5C(=O)C([C@@H](C)O)NC4=O)cc3)cc2)cc1 (stereo partly drawn) [anidulafungin, 1-[(4R,5R)-4,5-Dihydroxy-N^2-[[4″-(pentyloxy)[1,1′:4′,1″-terphenyl]-4-yl]carbonyl]-L-ornithine]echinocandin B] ({pTerphenylCO(4''-OnC5H11)}-[Orn(4R-OH,5R-OH)][ξThr(3R)][Hyp][hTyr(3S-OH,4S-OH)]T[Pro(3S-OH,4S-Me)]; lactam 1-C)
solubility in ethanol (ethanol): slightly soluble
solubility in water (water): practically insoluble
inhibition of glucan synthase (glucan synthase): inhibits
in vitro activity (Candida albicans [1]): active
in vitro activity (C. glabrata): active
in vitro activity (C. parapsilosis): active
in vitro activity (C. tropicalis): active
efficacy as prolonged survival and reduction in mycological burden (Candida albicans [2]): effective
efficacy as prolonged survival and reduction in mycological burden (Candida albicans [3]): effective
mycological burden [4]: reduces the mycological burden
clearance [5]: about 1 L/h
distribution half-life [5]: 0.5 to 1 h
intersubject variability of systemic exposure (coefficient of variation) [5]: < 25%
systemic exposures, dose dependence [5]: dose proportional
terminal elimination half-life [5]: 40 to 50 h
volume of distribution [5]: 30 to 50 L
estimated plasma accumulation factor at steady state ([5]; after loading dose twice the daily maintenance dose): approximately 2
bound to human plasma proteins (human plasma proteins): > 99%
substrate, inducer or inhibitor of CYP450 isoenzymes [6]: not a clinically relevant substrate, inducer, or inhibitor
clinical effectiveness (Candida; patients with candidemia and/or other forms of invasive candidiasis): effectiveness
clinical effectiveness (Candida; patients with esophageal candidiasis): effectiveness
